Source: patent US12551451B2, “Compositions and methods for delivering molecules” (SunVax mRNA Therapeutics Inc., priority 2023, dated 2026)

Assays:
[1] = LNP Characteristics (size, PDI, encapsulation efficiency) of LNPs formulated with novel ionizable lipids; type: physicochemical; conditions: LNP formulated with the ionizable lipid, DOPE, Cholesterol, DMG-PEG2000
Protocol: LNPs formulated using the novel ionizable lipids of the disclosure or control ionizable lipids MC3 and SM-102 were synthesized by mixing the lipid components of the LNP in ethanol at a predetermined molar ratio (ionizable lipid/DOPE/Cholesterol/DMG-PEG2000=30/15/50/1.5) to prepare an organic phase. Sa-mRNA encoding firefly luciferase (LUC) or green fluorescent protein (GFP) was diluted in 50 mM citrate buffer (pH 4.5, Fisher) to prepare an aqueous phase. The sa-mRNA was stored at −80° C. and was thawed on ice prior to use. The ethanol and aqueous phases were mixed at a 1:3 ratio by pipette with the N/P=4.2/1. The resultant LNPs were purified by ultrafiltration (100,000 cut-off, MilliporeSigma™ Amicon™ Ultra-15 Centrifugal Filter Units) at 4° C. prior to transfection into a cell, such as a T-cell.
LNPs formulated using novel ionizable lipids of the disclosure were synthesized using the procedure described in Example 2 and characterized. Table 4 below show the properties of each LNP formulated using a novel ionizable lipid of the disclosure.

spleen = test: In vivo Luciferase expression after injection of LNP-encapsulated modified mRNA, IVIS imaging; conditions: LNP delivering 10 mg modified mRNA encoding Luciferase; 18 hours post injection; Balb/c mice
Protocol: (§1) LNP formulated using the ionizable lipids of the disclosure were used to deliver modified RNA encoding reporter genes to determine the transfection efficiency of exemplary ionizable lipids of the disclosure in immune cells and organs. Injections of mice with LNP-encapsulated modified mRNA encoding either Luciferases or eGFP were performed. In experiments with payloads encoding Luciferase mRNA, spleen expression was detected, which is an important organ with abundant pan T cells. In experiments with payloads encoding eGFP mRNA, transfection of primary T cells in vivo by FACS analysis was performed.
Balb/c mice were intraperitoneally injected with 10 mg modified mRNA encoding Luciferase, encapsulated by LNPs formulated with P1D4, P51C12, P161F6 ionizable lipids. To detect luminescence, the mice were subsequently injected with 6 mg Luciferin, a substrate of Luciferase and imaged by IVIS five minutes later.

[2] = system: endogenous CD4, CD8, CD4/CD8 T cells and NK cells; test: In vivo transfection of T and NK cells with LNP-encapsulated modified mRNA encoding eGFP, FACS of splenocytes; set-up: species or system Balb/c mice; conditions: LNP delivering 10 mg modified mRNA encoding eGFP, intravenously, 18 hours after injection
Protocol: as §1
Balb/c mice were intravenously injected with of 10 mg modified mRNA encoding eGFP. The modified mRNA encoding eGFP were delivered using LNPs formulated with P1D4 and P161F6 ionizable lipids in groups of 5 mice. A control group of 5 mice were injected with PBS. Balb/c mice were injected intravenously. The mice were sacrificed 18 hours after injection. Single cell splenocytes were prepared for FACS staining.

CCCCCCCCCCCCCC(=O)N(CC(CCCCCCCC)CCCCCCCCCC)C(C(=O)NCC(=O)OCC)C1CCN(CC)CC1 (stereo not shown) [Lipid P1D4, Ethyl (2-(1-ethylpiperidin-4-yl)-2-(N-(2-octyldodecyl)tetradecanamido)acetyl)glycinate]
Avg. Encapsulation Efficiency (EE) % [1]: 92.7%
Avg. PDI [1]: 0.17
Avg. Size [1]: 170.4 nm
transfection of the spleen (Luciferase signal) (spleen): effectively transfected the spleen
transfection of endogenous CD4, CD8, CD4/CD8 T cells and NK cells [2]: could transfect endogenous CD4, CD8, CD4/CD8 T cells as well as NK cell

CCCCCC/C=C\CCCCCCCC(=O)N(C(CCCCCCCC)CCCCCCCC)C(C(=O)NC1CCCCCC1)C1CCN(CC)CC1 (stereo not shown) [Lipid P149C2, (Z)-N-(2-(cycloheptylamino)-1-(1-ethylpiperidin-4-yl)-2-oxoethyl)-N-(heptadecan-9-yl)hexadec-9-enamide]
Avg. Encapsulation Efficiency (EE) % [1]: 90.1%
Avg. PDI [1]: 0.15
Avg. Size [1]: 176 nm

CCCCCCCCCCCCOC(=O)CCC(=O)N(C(CCCCCCC)CCCCCCC)C(C(=O)NC1CCCCCC1)C1CCN(CC)CC1 (stereo not shown) [Lipid P153C1, dodecyl 4-((2-(cycloheptylamino)-1-(1-ethylpiperidin-4-yl)-2-oxoethyl)(pentadecan-8-yl)amino)-4-oxobutanoate]
Avg. Encapsulation Efficiency (EE) % [1]: 90.1%
Avg. PDI [1]: 0.12
Avg. Size [1]: 148 nm

CCCCCCCCCCCCOC(=O)CCC(=O)N(C(CCCCCCCCC)CCCCCCCCC)C(C(=O)NC1CCCCCC1)C1CCN(CC)CC1 (stereo not shown) [Lipid P153C3, dodecyl 4-((2-(cycloheptylamino)-1-(1-ethylpiperidin-4-yl)-2-oxoethyl)(nonadecan-10-yl)amino)-4-oxobutanoate]
Avg. Encapsulation Efficiency (EE) % [1]: 86.8%
Avg. PDI [1]: 0.07
Avg. Size [1]: 86.8 nm

CCCCCCCCCCCCOC(=O)CCC(=O)N(C(CCCCCCCCCCC)CCCCCCCCCCC)C(C(=O)NC1CCCCCC1)C1CCN(CC)CC1 (stereo not shown) [Lipid P153C5, dodecyl 4-((2-(cycloheptylamino)-1-(1-ethylpiperidin-4-yl)-2-oxoethyl)(tricosan-12-yl)amino)-4-oxobutanoate]
Avg. Encapsulation Efficiency (EE) % [1]: 62.0%
Avg. PDI [1]: 0.14
Avg. Size [1]: 169 nm

CCCCCCCCCCCCOC(=O)CCC(=O)N(CC(CCCCCCCC)CCCCCCCCCC)C(C(=O)NC1CCCCCC1)C1CCCN(CC)C1 (stereo not shown) [Lipid P159C10, dodecyl 4-((2-(cycloheptylamino)-1-(1-ethylpiperidin-3-yl)-2-oxoethyl)(2-octyldodecyl)amino)-4-oxobutanoate]
Avg. Encapsulation Efficiency (EE) % [1]: 95.8%
Avg. PDI [1]: 0.13
Avg. Size [1]: 174 nm

CCCCCCCCCCCCC(CCCCCCCCCC)CN(C(=O)CCC(C)C1CCC2C3CC(O)C4CC(O)CCC4(C)C3CCC12C)C(C(=O)NC12CC3CC(CC(C3)C1)C2)C1CCN(CC)CC1 (stereo not shown) [Lipid P161F6, N-(2-(((1s,3s)-adamantan-1-yl)amino)-1-(1-ethylpiperidin-4-yl)-2-oxoethyl)-N-(2-decyltetradecyl)-4-(3,6-dihydroxy-10,13-dimethylhexadecahydro-1H-cyclopenta[a]phenanthren-17-yl)pentanamide]
Avg. Encapsulation Efficiency (EE) % [1]: 87.1%
Avg. PDI [1]: 0.18
Avg. Size [1]: 215 nm
transfection of the spleen (Luciferase signal) (spleen): effectively transfected the spleen
transfection of endogenous CD4, CD8, CD4/CD8 T cells and NK cells [2]: could transfect endogenous CD4, CD8, CD4/CD8 T cells as well as NK cell

CCCCCCCCCCC(CCCCCCCC)CN(C(=O)CCC(C)C1CCC2C3CC(O)C4CC(O)CCC4(C)C3CCC12C)C(CC1CCN(C)CC1)C(=O)NC12CC3CC(CC(C3)C1)C2 (stereo not shown) [Lipid P161F10, N-(1-(((1s,3s)-adamantan-1-yl)amino)-3-(1-methylpiperidin-4-yl)-1-oxopropan-2-yl)-4-(3,6-dihydroxy-10,13-dimethylhexadecahydro-1H-cyclopenta[a]phenanthren-17-yl)-N-(2-octyldodecyl)pentanamide]
Avg. Encapsulation Efficiency (EE) % [1]: 87.9%
Avg. PDI [1]: 0.19
Avg. Size [1]: 225 nm
